# Laboratory results from PubChem BioAssay (NCI).
# “And” between values parts separate entries of the source, which are not always exact repeats. Equal entries are not always repeated.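 Cultured in 96-well plates, cells were exposed to test compound for 48 hours across five concentrations. The concentration for 50% growth inhibition is given as GI50. At the TGI there is no net growth.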
# Key:
# Assay in all cases: NCI tumour cell line growth inhibition, 48 h
# SNB-19 CNS = tested on: SNB-19 CNS
# RXF 393 renal = tested on: RXF 393 renal
# SK-MEL-5 melanoma = tested on: SK-MEL-5 melanoma
# A498 renal = tested on: A498 renal
# KM12 colon = tested on: KM12 colon
# MOLT-4 leukemia = tested on: MOLT-4 leukemia
# SNB-75 CNS = tested on: SNB-75 CNS
# UACC-257 melanoma = tested on: UACC-257 melanoma
# HL-60(TB) leukemia = tested on: HL-60(TB) leukemia
# HT29 colon = tested on: HT29 colon
# A549 NSCLC = tested on: A549 NSCLC
# OVCAR-5 ovarian = tested on: OVCAR-5 ovarian
# HCT-116 colon = tested on: HCT-116 colon
# OVCAR-3 ovarian = tested on: OVCAR-3 ovarian
# SK-MEL-2 melanoma = tested on: SK-MEL-2 melanoma
# SF-268 CNS = tested on: SF-268 CNS
# OVCAR-8 ovarian = tested on: OVCAR-8 ovarian
# NCI-H226 lung = tested on: NCI-H226 lung
# DMS 273 small cell lung = tested on: DMS 273 small cell lung
# CCRF-CEM leukemia = tested on: CCRF-CEM leukemia
# SN12C renal = tested on: SN12C renal
# IGROV1 ovarian = tested on: IGROV1 ovarian
# K-562 leukemia = tested on: K-562 leukemia
# MALME-3M melanoma = tested on: MALME-3M melanoma
# SW-620 colon = tested on: SW-620 colon
# HCC-2998 colon = tested on: HCC-2998 colon
# NCI-H23 lung = tested on: NCI-H23 lung
# NCI-H460 lung = tested on: NCI-H460 lung
# HCT-15 colon = tested on: HCT-15 colon
# M19-MEL melanoma = tested on: M19-MEL melanoma
# CAKI-1 renal = tested on: CAKI-1 renal
# SNB-78 CNS = tested on: SNB-78 CNS
# SN12K1 renal = tested on: SN12K1 renal
# LOX IMVI melanoma = tested on: LOX IMVI melanoma
# XF 498 CNS = tested on: XF 498 CNS
# UACC-62 melanoma = tested on: UACC-62 melanoma
# SK-MEL-28 melanoma = tested on: SK-MEL-28 melanoma
# MCF7 breast = tested on: MCF7 breast
# RPMI-8226 leukemia = tested on: RPMI-8226 leukemia
# P388/ADR leukemia = tested on: P388/ADR leukemia
# SF-295 CNS = tested on: SF-295 CNS
# KM20L2 colon = tested on: KM20L2 colon
# SK-OV-3 ovarian = tested on: SK-OV-3 ovarian
# HOP-18 NSCLC = tested on: HOP-18 NSCLC
# NCI/ADR-RES ovarian = tested on: NCI/ADR-RES ovarian
# P388 leukemia = tested on: P388 leukemia
# COLO 205 colon = tested on: COLO 205 colon
# DMS 114 small cell lung = tested on: DMS 114 small cell lung
# SF-539 CNS = tested on: SF-539 CNS
# HOP-92 NSCLC = tested on: HOP-92 NSCLC
# U251 CNS = tested on: U251 CNS
# OVCAR-4 ovarian = tested on: OVCAR-4 ovarian
# EKVX NSCLC = tested on: EKVX NSCLC
# UO-31 renal = tested on: UO-31 renal
# DLD-1 colon = tested on: DLD-1 colon
# HOP-62 NSCLC = tested on: HOP-62 NSCLC
# NCI-H522 lung = tested on: NCI-H522 lung
# 786-0 renal = tested on: 786-0 renal
# LXFL 529 NSCLC = tested on: LXFL 529 NSCLC
# ACHN renal = tested on: ACHN renal
# SR leukemia = tested on: SR leukemia
# TK-10 renal = tested on: TK-10 renal
smiles,measurement,setting,value
CC1=NCCc2cc3[nH]c4ccccc4c3cc21,TGI,SNB-19 CNS,116 µM
same,TGI,RXF 393 renal,23.4 µM
same,TGI,SK-MEL-5 melanoma,28100 nM
same,TGI,A498 renal,46.1 µM
same,TGI,KM12 colon,78.8 µM
same,TGI,MOLT-4 leukemia,34.3 µM
same,TGI,SNB-75 CNS,70 µM
same,TGI,UACC-257 melanoma,24.6 µM
same,TGI,HL-60(TB) leukemia,37600 nM
same,TGI,HT29 colon,48.7 µM
same,TGI,A549 NSCLC,103 µM
same,TGI,OVCAR-5 ovarian,56.6 µM
same,TGI,HCT-116 colon,45.5 µM
same,TGI,OVCAR-3 ovarian,114 µM
same,TGI,SK-MEL-2 melanoma,29.3 µM
same,TGI,SF-268 CNS,77.7 µM
same,TGI,OVCAR-8 ovarian,> 88.5 µM
same,TGI,NCI-H226 lung,37.9 µM
same,TGI,DMS 273 small cell lung,50.6 µM
same,TGI,CCRF-CEM leukemia,36.9 µM
same,TGI,SN12C renal,62.9 µM
same,TGI,IGROV1 ovarian,> 85.3 µM
same,TGI,K-562 leukemia,22.9 µM
same,TGI,MALME-3M melanoma,22300 nM
same,TGI,SW-620 colon,52.5 µM
same,TGI,HCC-2998 colon,53.8 µM
same,TGI,NCI-H23 lung,83.8 µM
same,TGI,NCI-H460 lung,37.1 µM
same,TGI,HCT-15 colon,78.4 µM
same,TGI,M19-MEL melanoma,43.6 µM
same,TGI,CAKI-1 renal,57.6 µM
same,TGI,SNB-78 CNS,86.9 µM
same,TGI,SN12K1 renal,44.6 µM
same,TGI,LOX IMVI melanoma,37.7 µM
same,TGI,XF 498 CNS,30500 nM
same,TGI,UACC-62 melanoma,39.8 µM
same,TGI,SK-MEL-28 melanoma,24.6 µM
same,TGI,MCF7 breast,69.7 µM
same,TGI,RPMI-8226 leukemia,40.3 µM
same,TGI,P388/ADR leukemia,34.2 µM
same,TGI,SF-295 CNS,46.8 µM
same,TGI,KM20L2 colon,45.7 µM
same,TGI,SK-OV-3 ovarian,62.6 µM
same,TGI,HOP-18 NSCLC,50 µM
same,TGI,NCI/ADR-RES ovarian,83.8 µM
same,TGI,P388 leukemia,21.9 µM
same,TGI,COLO 205 colon,24.5 µM
same,TGI,DMS 114 small cell lung,23400 nM
same,TGI,SF-539 CNS,32 µM
same,TGI,HOP-92 NSCLC,5.45 µM
same,TGI,U251 CNS,79 µM
same,TGI,OVCAR-4 ovarian,110 µM
same,TGI,EKVX NSCLC,95.8 µM
same,TGI,UO-31 renal,54.9 µM
same,TGI,DLD-1 colon,73.1 µM
same,TGI,HOP-62 NSCLC,111 µM
same,TGI,NCI-H522 lung,84900 nM
COc1cccc2c1C(=O)c1c(O)c3c(c(O)c1C2=O)C[C@@](O)(C(C)O)C[C@@H]3OC1CC(N)C(O)C(C)O1 (some centres undefined),GI50,SNB-19 CNS,392 nM
same,TGI,SNB-19 CNS,7.81 µM and 5.57 µM
same,TGI,RXF 393 renal,5.13 µM and 6.06 µM
same,TGI,SK-MEL-5 melanoma,2490 nM and 2530 nM
same,GI50,A498 renal,776 nM
same,TGI,A498 renal,8.09 µM and 4.62 µM
same,GI50,KM12 colon,2750 nM
same,TGI,KM12 colon,9.34 µM and 14.3 µM
same,GI50,MOLT-4 leukemia,81.1 nM
same,GI50,SNB-75 CNS,1710 nM and 1050 nM
same,TGI,SNB-75 CNS,6.25 µM and 4.31 µM
same,GI50,UACC-257 melanoma,2410 nM
same,TGI,UACC-257 melanoma,4.2 µM and 9.17 µM
same,TGI,HL-60(TB) leukemia,1130 nM and 1290 nM
same,TGI,786-0 renal,4.11 µM
same,GI50,HT29 colon,2780 nM
same,TGI,HT29 colon,36.6 µM
same,GI50,A549 NSCLC,1110 nM
same,TGI,A549 NSCLC,6.02 µM and 29 µM
same,GI50,OVCAR-5 ovarian,3.69 µM
same,TGI,OVCAR-5 ovarian,9.41 µM and 19.7 µM
same,GI50,HCT-116 colon,1380 nM
same,TGI,HCT-116 colon,4.17 µM and 17.8 µM
same,TGI,OVCAR-3 ovarian,7.29 µM and 8.79 µM
same,GI50,SK-MEL-2 melanoma,1590 nM
same,TGI,SK-MEL-2 melanoma,3.5 µM and 3.45 µM
same,TGI,SF-268 CNS,5.52 µM and 6.43 µM
same,GI50,OVCAR-8 ovarian,2390 nM
same,TGI,OVCAR-8 ovarian,5.43 µM and > 52.5 µM
same,GI50,NCI-H226 lung,808 nM
same,TGI,NCI-H226 lung,2.39 µM and 3.11 µM
same,TGI,DMS 273 small cell lung,7.24 µM and 6.65 µM
same,GI50,CCRF-CEM leukemia,254 nM
same,TGI,CCRF-CEM leukemia,1.33 µM
same,GI50,SN12C renal,1490 nM
same,TGI,SN12C renal,6.58 µM and 7.62 µM
same,TGI,IGROV1 ovarian,9.22 µM and 18.4 µM
same,GI50,K-562 leukemia,2210 nM
same,TGI,K-562 leukemia,8.19 µM and 26.5 µM
same,GI50,MALME-3M melanoma,392 nM
same,TGI,MALME-3M melanoma,1720 nM and 1930 nM
same,GI50,SW-620 colon,881 nM
same,TGI,SW-620 colon,8.28 µM and 21.4 µM
same,GI50,HCC-2998 colon,2260 nM
same,TGI,HCC-2998 colon,5.26 µM and 7.66 µM
same,GI50,NCI-H23 lung,1270 nM
same,TGI,NCI-H23 lung,2.44 µM and 4.93 µM
same,TGI,NCI-H460 lung,2.29 µM and 6.95 µM
same,GI50,HCT-15 colon,12.1 µM
same,TGI,HCT-15 colon,> 100 µM
same,TGI,LXFL 529 NSCLC,7.62 µM
same,TGI,M19-MEL melanoma,3.32 µM and 4.06 µM
same,TGI,CAKI-1 renal,3.16 µM and 3.53 µM
same,TGI,SNB-78 CNS,7.32 µM and 8.53 µM
same,TGI,SN12K1 renal,2.4 µM
same,GI50,LOX IMVI melanoma,1290 nM
same,TGI,LOX IMVI melanoma,4.13 µM and 3.11 µM
same,GI50,XF 498 CNS,221 nM
same,TGI,XF 498 CNS,2870 nM and 1860 nM
same,TGI,UACC-62 melanoma,3.01 µM and 3.29 µM
same,GI50,SK-MEL-28 melanoma,1930 nM
same,TGI,SK-MEL-28 melanoma,4.05 µM and 7.36 µM
same,TGI,MCF7 breast,42.5 µM
same,GI50,RPMI-8226 leukemia,289 nM and 502 nM
same,TGI,RPMI-8226 leukemia,2.53 µM and 13 µM
same,TGI,P388/ADR leukemia,> 100 µM
same,TGI,SF-295 CNS,6.29 µM and 7.17 µM
same,TGI,ACHN renal,8.18 µM
same,GI50,KM20L2 colon,4.52 µM
same,TGI,KM20L2 colon,42.9 µM
same,TGI,SK-OV-3 ovarian,8.2 µM and 18.6 µM
same,GI50,HOP-18 NSCLC,4.96 µM and 1.13 µM
same,TGI,HOP-18 NSCLC,9.5 µM and 7.49 µM
same,TGI,NCI/ADR-RES ovarian,> 100 µM
same,TGI,P388 leukemia,1.69 µM
same,TGI,SR leukemia,659 nM
same,GI50,COLO 205 colon,894 nM
same,TGI,COLO 205 colon,4.95 µM and 10.5 µM
same,GI50,DMS 114 small cell lung,255 nM
same,TGI,DMS 114 small cell lung,1480 nM and 1140 nM
same,GI50,SF-539 CNS,665 nM
same,TGI,SF-539 CNS,4.77 µM and 3.63 µM
same,GI50,HOP-92 NSCLC,231 nM
same,TGI,HOP-92 NSCLC,3.37 µM and 2.11 µM
same,GI50,U251 CNS,705 nM
same,TGI,U251 CNS,7.87 µM and 3.44 µM
same,TGI,TK-10 renal,8.11 µM
same,GI50,OVCAR-4 ovarian,13.4 µM
same,TGI,OVCAR-4 ovarian,35.2 µM
same,GI50,EKVX NSCLC,1730 nM
same,TGI,EKVX NSCLC,4.91 µM and 9.53 µM
same,TGI,UO-31 renal,97.8 µM
same,GI50,DLD-1 colon,6.11 µM
same,TGI,DLD-1 colon,> 100 µM
same,TGI,HOP-62 NSCLC,4.3 µM and 4.42 µM
same,GI50,NCI-H522 lung,228 nM
same,TGI,NCI-H522 lung,2340 nM and 1820 nM
